Patent publication US20260227408A1, “Compositions and Methods for Modulation of Immune Responses” (Flagship Pioneering Innovations VI, LLC, priority 2022, published 2026)

B1: SEQ ID NO: 35480: target protein of the Sequence Listing, applied as peptide to PBMCs (peptide, listed as Homo sapiens)
chain: LRPRSAAFAPRYTRLVMRRSSRSFRLQCTGFPSSSAQSISAHLSNSMPSSLLTISRCPGMFAVRCPL
B2: SEQ ID NO: 33169: target protein of the Sequence Listing, applied as peptide to PBMCs (peptide, listed as Homo sapiens)
chain: MCHKGWHGPGVPHHVAFTPCKARLRPATQCQAHSSPRRKMVQAGSIPLAAASGRLCLTHAGWWRGAS

Tests used:
[1] = system: CD3/CD28 (TransAct) activated PBMCs; assay: PBMC cytokine release by CBA, Inhibition format (peptide with CD3/CD28 TransAct activator); format: cell-based, human; design: key to Inhibition by Analyte IL-1b / Inhibition by Analyte IL-2 / Inhibition by Analyte TNF / Inhibition by Analyte IP-10 / Inhibition by Analyte IL-10: X = a hit with significant activation or inhibition of relevant cytokine release
Method: (§1) CBA (Cytometry) experiment looking at pro-inflammatory cytokines produced by PBMCs treated with secreted peptides.
(§2) Peripheral Blood Mononuclear Cells were seeded+/−the T-cell activator […] and +/−peptides for 24-48 hours. Cytokines were measured from the supernatant after incubation by CBA Cytometer.
(§3) Thawing PBMCs: PBMCs were thawed by pre-warming TexMACS media (Miltenyi Biotech) in 20 ml aliquots-1-50 ml conical per donor. After the media was warmed to 37° C., cells were removed from liquid nitrogen and brought to the tissue culture hood. For each donor, 1 ml of media from the warmed aliquot was added to the frozen vial and mixed up and down. The media plus thawed cells were then added back to the 50 ml conical. This was repeated until all the cells were thawed and added to the 50 ml tube. Continue with other donors if used. Spin cells for 5 min at 400×g. Supernatant was aspirated and cells resuspended at ~10*10^6 cells/ml (see vial for cell number).
(§4) PBMC Plating: Frozen PBMCs from normal, healthy, human volunteers (StemCell Technologies) were thawed and plated at 250,000 cells/well. After PBMCs were thawed and resuspended at […], cells were then counted (Countess III, Thermo Scientific) and adjusted based on counts to […]. Take the number of PBMCs determined by number of wells for the experiment, for example, 10 wells would need 2.5*10^6 cells total or 0.250 ml. The cells needed for the experiment are then transferred to another conical tube. Warmed TexMACS media is added so that the final concentration is 250,000 cells/190 ul media, for example, 10 wells would need 1.9 ml (190 ul×10 wells) of media total minus 0.250 ml of cells (1.9 ml-0.250 ml) or 1.65 ml of media added to the 0.250 ml of cells. Add 190 ul of cells plus media to the 96 well U-bottom plate. Place in incubator until dilutions are made and ready.
(§5) Peptide Dilutions: Ideally, all peptides should be at a starting concentration of at least 10 mM, especially for those in DMSO (ATCC) to reach a final concentration of 1 uM (H2O) or 0.5 uM (DMSO). Dilutions of all test articles should be made at 20× the final concentration, for example, a final concentration of 1 uM peptide would need to be made at 20 uM.
(§6) Reagent Dilution: Dilutions are made in TexMACS media, enough for 10 ul/well in triplicate (30 ul of a 20×). Activator—CD3/CD28 (TransAct; Miltenyi Biotech) or cytokine will be at 21× and added after the 45-minute incubation with peptides. Be sure to include relevant controls—Positive: TransAct+Cells, Negative: Vehicle+Cells. Dilutions should also be made in a ultra-low binding plate (Corning).
(§7) Assay Procedure: Peptide Treatment: Start assay by thawing the cells and plating in a 96 well, U-bottom tissue culture plate (Corning) as described above. Cell plates are placed in a tissue culture incubator (5% CO2, 37° C.). While cells are in the incubator, start making dilutions (optimally 1 hr or less) as described above. Cell plates are removed from the incubator and 10 ul of the 20× dilutions are added to the relevant wells. After the addition of inhibitors, cell plates are placed in the tissue culture incubator for 45 minutes. The plates are removed from the incubator and 10 ul of […] TransAct is added to the relevant wells*. Plates are then returned to the incubator and incubated for 24 hours. After 24 hours, plates are spun for 5 minutes at 400×g. * Activation: This assay can be run in two different formats—Activation and Inhibition. The procedure is the same except no TransAct is needed in the peptide wells for Activation. TransAct is only needed in the control wells. The purpose of this procedure is to determine the possible response from peptides alone.
(§8) Cytometric BeadArray (CBA): After the spin, supernatants (~150 ul) are transferred to a new, ultra-low binding U-bottom plate. Supernatants are then frozen at −20° C. until thawed for CBA (BD) to determine levels of human IL-2, TNFa, IL-1b, IP-10, IL-10, and IFNg. […]

[2] = system: Peripheral Blood Mononuclear Cells; assay: PBMC cytokine release by CBA, Activation format (peptide alone); format: cell-based, human; design: key: X = a hit with significant activation or inhibition of relevant cytokine release; details: peptide applied to PBMCs alone; supernatant CBA after 24 hours
Method: as §1, §2, §3, §4, §5, §6, §7, §8

[3] = peptide applied with anti-CD3/CD28 T-cell activator, supernatant CBA after 24 hours

| Molecule | Inhibition by Analyte IL-1b [1, 3] | Activation by Analyte IP-10 [2] | Inhibition by Analyte TNF [1, 3] | Inhibition by Analyte IL-2 [1, 3] | other results |
| --- | --- | --- | --- | --- | --- |
| SEQ ID NO: 37363: target protein of the Sequence Listing, applied as peptide to PBMCs (MGGKSWLFFYSLVFCALLPLPRREDPFKLF; listed as Homo sapiens) | X |  |  |  |  |
| SEQ ID NO: 37394: target protein of the Sequence Listing, applied as peptide to PBMCs (MESRTLLLLFSGAVALIQTWADYNYNQGRNDLIFTLQLWKRQ; listed as Homo sapiens) | X |  |  |  |  |
| SEQ ID NO: 33678: target protein of the Sequence Listing, applied as peptide to PBMCs (METSCSLWVSSELFCRSVKVFFCLLALHLSALPHSSWTQDKNLGLAGMVELK; listed as Homo sapiens) |  | X |  |  |  |
| SEQ ID NO: 34837: target protein of the Sequence Listing, applied as peptide to PBMCs (MRSPLSASALLLWSSSVARAFSSPSLLMAVPSPTCSRY; listed as Homo sapiens) | X |  | X |  | Inhibition by Analyte IL-10 [1, 3]: X; Inhibition by Analyte IP-10 [1, 3]: X |
| SEQ ID NO: 37375: target protein of the Sequence Listing, applied as peptide to PBMCs (MARPLSLAAAGAPDLLFTALCSLLIEAQPLRPFDLQVLGDPQPRARTP; listed as Homo sapiens) |  |  |  |  | Activation by Analyte IL-2 [2]: X |
| SEQ ID NO: 37043: target protein of the Sequence Listing, applied as peptide to PBMCs (MSEVATLLFSQTALASLESVHPAGHKLWMRNLRQVTSP; listed as Homo sapiens) |  |  | X | X |  |
| SEQ ID NO: 33934: target protein of the Sequence Listing, applied as peptide to PBMCs (MSFDHPEKNGPWPADPINLPSHG; listed as Homo sapiens) |  |  | X | X |  |
| SEQ ID NO: 37192: target protein of the Sequence Listing, applied as peptide to PBMCs (MVSHRKDWRRVNLRFSSCLLLSICLDDKPSADELCFWTDHGRSQLTCPSLGVSQGHARSS; listed as Homo sapiens) |  | X |  |  |  |
| SEQ ID NO: 33885: Target Protein validated as an anti-inflammatory immune modulator (VAEPRRGHLKAALASLGGAAPAAATNGSPPLFK; listed as Homo sapiens) | X |  | X | X | release of TNF-alpha from activated PBMCs ([1]; CD3/CD28 (TransAct) activated PBMCs, FIG. 1): significantly blocks; release of IL-1b from activated PBMCs ([1]; CD3/CD28 (TransAct) activated PBMCs, FIG. 2): does not block; Inhibition by Analyte IP-10 [1, 3]: X |
| SEQ ID NO: 38042: target protein of the Sequence Listing, applied as peptide to PBMCs (MWWKTPCWWTPSTTATSSSAEARSCGRLLKSMAG; listed as Homo sapiens) |  | X |  |  |  |
| SEQ ID NO: 35373: target protein of the Sequence Listing, applied as peptide to PBMCs (LDFIRAFLLLLVASVPGKIGSQNLTAQRPPVATSFLQMESSEPTVRK; listed as Homo sapiens) | X |  | X | X | Inhibition by Analyte IP-10 [1, 3]: X |
| B1 |  | X |  |  |  |
| B2 |  | X |  |  |  |
